Measured values as given in patent US20170190671A1, “BIS(ARYL)CATECHOL DERIVATIVES AS HERBICIDES” (E I DU PONT DE NEMOURS AND COMPANY, priority 2014, published 2017).

What was measured:
Format in all cases: in vivo
[1] = system: galium (catchweed bedstraw, Galium aparine); test: Test A postemergence; details: 0 to 100 scale
How it was run: (§1)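 Visual 0–100 rating (100 = complete control) taken about 10 d post-treatment relative to untreated checks. Preemergence: directed soil spray on sown loam/sand pots. Postemergence: seedlings 2–10 cm, 1–2 leaf. Non-phytotoxic solvent formulation with surfactant.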

[2] = system: wheat (Triticum aestivum); test: Test A postemergence; details: 0 to 100 scale
How it was run: as §1

[3] = system: giant foxtail (Setaria faberii); test: Test A postemergence; details: 0 to 100 scale
How it was run: as §1

[4] = system: Italian ryegrass (Lolium multiflorum); test: Test A postemergence; details: 0 to 100 scale
How it was run: as §1

[5] = system: blackgrass (Alopecurus myosuroides); test: Test A postemergence; details: 0 to 100 scale
How it was run: as §1

[6] = system: pigweed (Amaranthus retroflexus); test: Test A postemergence; details: 0 to 100 scale
How it was run: as §1

corn (Zea mays) = test: Test A postemergence; details: 0 to 100 scale
How it was run: as §1

[7] = system: ragweed (common ragweed, Ambrosia elatior); test: Test A postemergence; details: 0 to 100 scale
How it was run: as §1

kochia (Kochia scoparia) [8] = test: Test A postemergence; details: 0 to 100 scale
How it was run: as §1

[9] = system: barnyardgrass (Echinochloa crus-galli); test: Test A postemergence; details: 0 to 100 scale
How it was run: as §1

[10] = system: giant foxtail (Setaria faberii); test: Test A preemergence; details: 0 to 100 scale (0 no effect, 100 complete control)
How it was run: as §1

[11] = system: Italian ryegrass (Lolium multiflorum); test: Test A preemergence; details: 0 to 100 scale (0 no effect, 100 complete control)
How it was run: as §1

[12] = system: pigweed (Amaranthus retroflexus); test: Test A preemergence; details: 0 to 100 scale (0 no effect, 100 complete control)
How it was run: as §1

[13] = system: ragweed (common ragweed, Ambrosia elatior); test: Test A preemergence; details: 0 to 100 scale (0 no effect, 100 complete control)
How it was run: as §1

kochia (Kochia scoparia) [14] = test: Test A preemergence; details: 0 to 100 scale (0 no effect, 100 complete control)
How it was run: as §1

[15] = system: barnyardgrass (Echinochloa crus-galli); test: Test A preemergence
How it was run: as §1

rice (Oryza sativa) = test: Test B flooded paddy; details: 250 g ai/ha, Flood, 13 to 15 days, scale 0 (no effect) to 100 (complete control)
How it was run: (§2)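 Test compounds are applied straight into paddy water held 3 cm above the soil surface, with that flood maintained for the whole test. After 13 to 15 days in the greenhouse, each species is scored visually relative to controls.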

[16] = system: ducksalad (Heteranthera limosa); test: Test B flooded paddy; details: 250 g ai/ha, Flood, 13 to 15 days, scale 0 (no effect) to 100 (complete control)
How it was run: as §2

[17] = system: sedge, umbrella (small-flower umbrella sedge, Cyperus difformis); test: Test B flooded paddy; details: 250 g ai/ha, Flood, 13 to 15 days, scale 0 (no effect) to 100 (complete control)
How it was run: as §2

[18] = system: barnyardgrass (Echinochloa crus-galli); test: Test B flooded paddy; details: 250 g ai/ha, Flood, 13 to 15 days, scale 0 (no effect) to 100 (complete control)
How it was run: as §2

Fc1ccc(F)c(Oc2ncc(C(F)(F)F)cn2)c1Oc1ncc(Cl)cn1 [Compound 25]
Plant response rating, Galium ([1]; 31 g ai/ha): 80
Plant response rating, Galium ([1]; 125 g ai/ha): 90
Plant response rating, Wheat ([2]; 31 g ai/ha): 0
Plant response rating, Wheat ([2]; 125 g ai/ha): 30
Plant response rating, Foxtail, Giant ([3]; 31 g ai/ha): 30
Plant response rating, Foxtail, Giant ([3]; 125 g ai/ha): 50
Plant response rating, Ryegrass, Italian ([4]; 31 g ai/ha): 0
Plant response rating, Ryegrass, Italian ([4]; 125 g ai/ha): 50
Plant response rating, Blackgrass ([5]; 31 g ai/ha): 60
Plant response rating, Blackgrass ([5]; 125 g ai/ha): 70
Plant response rating, Pigweed ([6]; 31 g ai/ha): 90
Plant response rating, Pigweed ([6]; 125 g ai/ha): 100
Plant response rating, Corn (corn (Zea mays); 31 g ai/ha): 10
Plant response rating, Corn (corn (Zea mays); 125 g ai/ha): 30
Plant response rating, Ragweed ([7]; 31 g ai/ha): 20
Plant response rating, Ragweed ([7]; 125 g ai/ha): 30
Plant response rating, Kochia (kochia (Kochia scoparia) [8]; 31 g ai/ha): 50
Plant response rating, Kochia (kochia (Kochia scoparia) [8]; 125 g ai/ha): 70
Plant response rating, Barnyardgrass ([9]; 31 g ai/ha): 10
Plant response rating, Barnyardgrass ([9]; 125 g ai/ha): 60
Foxtail, Giant plant response rating ([10]; 31 g ai/ha): 50
Foxtail, Giant plant response rating ([10]; 125 g ai/ha): 90
Ryegrass, Italian plant response rating ([11]; 31 g ai/ha): 10
Ryegrass, Italian plant response rating ([11]; 125 g ai/ha): 40
Pigweed plant response rating ([12]; 31 g ai/ha): 90
Pigweed plant response rating ([12]; 125 g ai/ha): 100
Ragweed plant response rating ([13]; 31 g ai/ha): 0
Ragweed plant response rating ([13]; 125 g ai/ha): 0
Kochia plant response rating (kochia (Kochia scoparia) [14]; 31 g ai/ha): 50
Kochia plant response rating (kochia (Kochia scoparia) [14]; 125 g ai/ha): 100
Barnyardgrass plant response rating ([15]; 31 g ai/ha, 0 to 100 scale (0 no effect, 100 complete control)): 10
Plant response rating, Barnyardgrass ([15]; 125 g ai/ha, 0 to 100 scale): 70
Plant response rating, Rice (rice (Oryza sativa)): 20
Plant response rating, Ducksalad [16]: 90
Plant response rating, Sedge, Umbrella [17]: 75
Plant response rating, Barnyardgrass [18]: 55
